# Tested on: Rattus norvegicus
# Settings: oral, gavage
# [1] = developmental, duration: 14 days, M/F, Crl:CD(SD), generation: F1, F1: Developmental: Bone: Skeletal Malformation + F1: Developmental: Whole Body: Nursing Behavior + F1: Developmental: Whole Body: Pup Weight…
# [2] = developmental, duration: 14 days, M/F, Crl:CD(SD), generation: F1, F1: Pelvis: Pelvis, Ischium Incompletely Ossified + F1: Pelvis: Pelvis, Pubis Incompletely Ossified + F1: Skull: Interparietal, Incomplete …
# [3] = developmental, duration: 14 days, M/F, Crl:CD(SD), generation: F1, F1: Skull: Supraoccipital, Incomplete Ossification
# [4] = developmental, duration: 14 days, M/F, Sprague-Dawley, generation: F1, F1: Developmental: Pelvic Girdle: Ischium, Incomplete Ossification + F1: Developmental: Pelvic Girdle: Pubis, Incomplete Ossification + F1: …
# [5] = developmental, duration: 14 days, M/F, Sprague-Dawley, generation: F1, F1: Developmental: Pelvis: Pelvis, Ischium Incompletely Ossified + F1: Developmental: Pelvis: Pelvis, Pubis Incompletely Ossified + F1: …
# [6] = developmental, duration: 14 days, M/F, Sprague-Dawley, generation: F1, F1: Pelvic Girdle: Ischium, Incomplete Ossification + F1: Pelvic Girdle: Pubis, Incomplete Ossification + F1: Rib: Rib, Thick + F1: Rib: Rib…
# [7] = developmental, M/F, Sprague-Dawley, generation: F1, F1: Developmental: Whole Body: Lactation Index + F1: Developmental: Whole Body: Live Pups Born + F1: Developmental: Whole Body: No. of Pups …
# [8] = reproduction developmental, duration: 14 days, F, Crl:CD(SD), generation: P0, P0: Developmental: Uterus: Implantation + P0: General Toxicity: Whole Body: Necropsy Appeared Normal + P0: Reproductive: Ovary: Corpora …
# [9] = reproduction developmental, duration: 14 days, F, Crl:CD(SD), generation: P0, P0: Developmental: Uterus: Implantation + P0: Reproductive: Whole Body: Length of Gestation
# [10] = reproduction developmental, duration: 14 days, F, Crl:CD(SD), generation: P0, P0: Whole Body: Clinical Observations + P0: Whole Body: Maternal Body Weight + P0: Whole Body: Maternal Body Weight Change + P0: Whole Body…
# [11] = reproduction developmental, duration: 14 days, F, Crl:CD(SD), generation: P0, P0: Whole Body: Maternal Body Weight Change, Corrected
# [12] = reproduction developmental, duration: 14 days, F, Sprague-Dawley, generation: P0, P0: Developmental: Uterus: Implantation + P0: Developmental: Uterus: Resorptions, Early + P0: Developmental: Uterus: Resorptions, Late + P0…
# [13] = reproduction developmental, duration: 14 days, F, Sprague-Dawley, generation: P0, P0: Whole Body: Maternal Body Weight + P0: Whole Body: Maternal Body Weight Change + P0: Whole Body: Maternal Body Weight, Corrected
# [14] = reproduction developmental, duration: 14 days, M/F, Crl:CD(SD), generation: F1, F1: Whole Body: Pup Weight + F1: Whole Body: Viability Index
compound,measurement,setting,value
OCCC(F)(F)C(F)(F)C(F)(F)C(F)(F)C(F)(F)C(F)(F)F [2-(Perfluorohexyl)ethanol],LOAEL,[1],225 mg/kg-day
same,NOAEL,[1],75 mg/kg-day
same,LEL,[2],250 mg/kg-day
same,NEL,[2],125 mg/kg-day
same,NEL,"developmental, duration: 14 days, M/F, Crl:CD(SD), generation: F1, F1: Skull: Frontal, Incomplete Ossification + F1: Skull: Zygomatic Arch, Incomplete Ossification + F1: Uterus: Fetuses, Dead + F1: Uterus: …",250 mg/kg-day
same,LEL,[3],125 mg/kg-day
same,NEL,[3],25 mg/kg-day
same,LOAEL,[4],125 mg/kg-day
same,NOAEL,[4],25 mg/kg-day
same,LOAEL,[5],125 mg/kg-day
same,NOAEL,[5],25 mg/kg-day
same,LEL,[6],250 mg/kg-day
same,NEL,[6],125 mg/kg-day
same,LOAEL,[7],125 mg/kg-day
same,NOAEL,[7],25 mg/kg-day
same,LOAEL,[8],225 mg/kg-day
same,NOAEL,[8],75 mg/kg-day
same,LOAEL,[9],225 mg/kg-day
same,NOAEL,[9],75 mg/kg-day
same,NEL,"reproduction developmental, duration: 14 days, F, Crl:CD(SD), generation: P0, P0: Ovary: Corpora Lutea + P0: Uterus: Implantation + P0: Uterus: Resorptions, Early + P0: Uterus: Resorptions, Late + P0: Uterus: …",250 mg/kg-day
same,NEL,"reproduction developmental, duration: 14 days, F, Crl:CD(SD), generation: P0, P0: Ovary: Corpora Lutea + P0: Uterus: Implantation + P0: Whole Body: Length of Gestation + P0: Whole Body: Necropsy Appeared Normal + P0: …",225 mg/kg-day
same,NOAEL,"reproduction developmental, duration: 14 days, F, Crl:CD(SD), generation: P0, P0: Reproductive: Ovary: Corpora Lutea + P0: Reproductive: Whole Body: Reproductive Performance",225 mg/kg-day
same,LEL,[10],250 mg/kg-day
same,NEL,[10],125 mg/kg-day
same,LEL,[11],125 mg/kg-day
same,NEL,[11],25 mg/kg-day
same,LOAEL,[12],125 mg/kg-day
same,NOAEL,[12],25 mg/kg-day
same,NEL,"reproduction developmental, duration: 14 days, F, Sprague-Dawley, generation: P0, P0: Macroscopic Observations + P0: Ovary: Corpora Lutea + P0: Uterus: Implantation + P0: Uterus: Resorptions, Early + P0: Uterus: …",250 mg/kg-day
same,NOAEL,"reproduction developmental, duration: 14 days, F, Sprague-Dawley, generation: P0, P0: Reproductive: Ovary: Corpora Lutea + P0: Reproductive: Uterus: Uterine Weight, Gravid",250 mg/kg-day
same,LEL,[13],250 mg/kg-day
same,NEL,[13],125 mg/kg-day
same,NEL,"reproduction developmental, duration: 14 days, M/F, Crl:CD(SD), generation: F1, F1: Whole Body: Nursing Behavior + F1: Whole Body: Skeletal Malformation",225 mg/kg-day
same,LEL,[14],225 mg/kg-day
same,NEL,[14],75 mg/kg-day
same,NEL,"reproduction developmental, duration: 34 days, M, Crl:CD(SD), generation: P0, P0: Central Nervous System: Latency to mount + P0: Whole Body: Necropsy Appeared Normal",225 mg/kg-day
